From patent publication US20240400564A1 (Syndax Pharmaceuticals, Inc, priority 2021, published 2024)

Target: hERG (Homo sapiens, UniProt Q12809)
Assay: Patch clamp assay (hERG tail currents, whole-cell)

hERG, sequence (Q12809 whole entry): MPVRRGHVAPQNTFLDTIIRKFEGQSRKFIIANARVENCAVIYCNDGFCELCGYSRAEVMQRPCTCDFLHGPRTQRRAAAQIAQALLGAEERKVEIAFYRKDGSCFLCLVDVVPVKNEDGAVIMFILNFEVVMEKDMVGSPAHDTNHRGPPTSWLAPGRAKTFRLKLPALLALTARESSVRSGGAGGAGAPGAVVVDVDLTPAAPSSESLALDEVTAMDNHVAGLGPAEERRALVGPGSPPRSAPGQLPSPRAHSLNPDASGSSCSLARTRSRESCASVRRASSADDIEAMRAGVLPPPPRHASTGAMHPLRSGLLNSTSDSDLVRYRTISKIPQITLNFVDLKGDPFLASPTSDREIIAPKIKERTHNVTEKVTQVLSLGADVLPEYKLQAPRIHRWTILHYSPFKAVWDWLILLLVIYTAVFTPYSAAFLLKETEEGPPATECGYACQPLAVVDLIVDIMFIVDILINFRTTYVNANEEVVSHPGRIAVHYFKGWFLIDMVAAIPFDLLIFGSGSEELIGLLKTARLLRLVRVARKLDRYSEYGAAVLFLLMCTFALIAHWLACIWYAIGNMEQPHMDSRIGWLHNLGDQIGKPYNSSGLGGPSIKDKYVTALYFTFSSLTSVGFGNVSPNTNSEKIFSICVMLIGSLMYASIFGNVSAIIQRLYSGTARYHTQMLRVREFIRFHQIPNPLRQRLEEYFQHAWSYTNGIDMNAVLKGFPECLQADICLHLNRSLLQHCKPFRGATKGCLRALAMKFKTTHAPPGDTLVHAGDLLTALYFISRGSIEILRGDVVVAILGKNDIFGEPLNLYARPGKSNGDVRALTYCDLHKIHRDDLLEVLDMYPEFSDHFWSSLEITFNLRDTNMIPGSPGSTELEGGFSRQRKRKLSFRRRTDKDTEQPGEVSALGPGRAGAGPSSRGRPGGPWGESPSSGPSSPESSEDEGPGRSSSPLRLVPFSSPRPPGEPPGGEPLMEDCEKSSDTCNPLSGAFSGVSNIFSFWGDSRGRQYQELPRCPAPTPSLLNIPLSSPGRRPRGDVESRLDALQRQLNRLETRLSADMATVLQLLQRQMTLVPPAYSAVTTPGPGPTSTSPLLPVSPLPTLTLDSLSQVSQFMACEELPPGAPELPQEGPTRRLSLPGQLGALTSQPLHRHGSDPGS

Compound	hERG % Remaining (10 μM compound)	hERG % Remaining (30 μM compound)	also measured
CC(C)N(C(=O)c1cc(F)ccc1Oc1cncnc1N1CC2(CCN(C[C@@H]3CC[C@@H](NS(=O)(=O)C4CC4)CO3)CC2)C1)C1CC(F)(F)C1 [Example 111, 2-((4-(7-(((2S,5R)-5-(Cyclopropanesulfonamido)tetrahydro-2H-pyran-2-yl)methyl)-2,7-diazaspiro[3.5]nonan-2-yl)pyrimidin-5-yl)oxy)-N-(3,3-difluorocyclobutyl)-5-fluoro-N-isopropylbenzamide]	++ (233% and ≤66%)	+ (<33%)	
CC(C)N(C(=O)c1cc(F)ccc1Oc1cncnc1N1CC2(CCN(C[C@@H]3CC[C@@H](NS(=O)(=O)N(C)C(C)C)CO3)CC2)C1)C1CC(F)(F)C1 [Example 119, N-(3,3-Difluorocyclobutyl)-5-fluoro-N-isopropyl-2-((4-(7-(((2S,5R)-5-((N-isopropyl-N-methylsulfamoyl)amino)tetrahydro-2H-pyran-2-yl)methyl)-2,7-diazaspiro[3.5]nonan-2-yl)pyrimidin-5-yl)oxy)benzamide]		+ (<33%)	
CCN(C(=O)c1cc(F)ccc1Oc1cncnc1N1CC2(CCN(C[C@@H]3CC[C@@H](NS(=O)(=O)c4ccc(OC)cc4)CO3)CC2)C1)C(C)C [Example 62, N-Ethyl-5-fluoro-N-isopropyl-2-((4-(7-(((2S,5R)-5-((4-methoxyphenyl)sulfonamido)tetrahydro-2H-pyran-2-yl)methyl)-2,7-diazaspiro[3.5]nonan-2-yl)pyrimidin-5-yl)oxy)benzamide]	+ (<33%)	+ (<33%)	
CNS(=O)(=O)N[C@@H]1CC[C@@H](CN2CCC3(CC2)CN(c2ncncc2Oc2ccc(F)cc2C(=O)N(C(C)C)C(C)C)C3)OC1 [Example 143, 5-Fluoro-N,N-diisopropyl-2-((4-(7-(((2S,5R)-5-((N-methylsulfamoyl)amino)tetrahydro-2H-pyran-2-yl)methyl)-2,7-diazaspiro[3.5]nonan-2-5-yl)pyrimidin-5-yl)oxy)benzamide]		+++ (≥66%)	hERG % Remaining (100 μM compound): +++ (≥66%)
CNS(=O)(=O)N[C@@H]1CC[C@@H](CN2CCC3(CC2)CN(c2ncncc2Oc2ccc(F)cc2C(=O)N(CC(F)F)C(C)C)C3)OC1 [Example 102, N-(2,2-Difluoroethyl)-5-fluoro-N-isopropyl-2-((4-(7-(((2S,5R)-5-((N-methylsulfamoyl)amino)tetrahydro-2H-pyran-2-yl)methyl)-2,7-diazaspiro[3.5]nonan-2-yl)pyrimidin-5-yl)oxy)benzamide]		+++ (≥66%)	
CC(C)N(C(=O)c1cc(F)ccc1Oc1cncnc1N1CC2(CCN(C[C@@H]3CC[C@@H](NS(=O)(=O)N4CC5(CCOC5)C4)CO3)CC2)C1)C(C)C [Example 223, 2-((4-(7-(((2S,5R)-5-(6-Oxa-2-azaspiro[3.4]octane-2-sulfonamido)tetrahydro-2H-pyran-2-yl)methyl)-2,7-diazaspiro[3.5]nonan-2-yl)pyrimidin-5-yl)oxy)-5-fluoro-N,N-diisopropylbenzamide]		+++ (≥66%)	
C[C@@H]1COC[C@@H](C)N1C(=O)c1cc(F)ccc1Oc1cncnc1N1CC2(CCN(C[C@@H]3CC[C@@H](NS(=O)(=O)N4CCC4)CO3)CC2)C1 [Example 121, N-((3R,6S)-6-((2-(5-(2-((3R,5R)-3,5-Dimethylmorpholine-4-carbonyl)-4-fluorophenoxy)pyrimidin-4-yl)-2,7-diazaspiro[3.5]nonan-7-yl)methyl)tetrahydro-2H-pyran-3-yl)azetidine-1-sulfonamide]		+++ (≥66%)	
CC(C)N(CC(F)F)C(=O)c1cc(F)ccc1Oc1cncnc1N1CC2(CCN(C[C@@H]3CC[C@@H](NS(=O)(=O)N(C)C)CO3)CC2)C1 [Example 95, N-(2,2-Difluoroethyl)-2-((4-(7-(((2S,5R)-5-((N,N-dimethylsulfamoyl)amino)tetrahydro-2H-pyran-2-yl)methyl)-2,7-diazaspiro[3.5]nonan-2-yl)pyrimidin-5-yl)oxy)-5-fluoro-N-isopropylbenzamide]	+++ (≥66%)	++ (233% and ≤66%)	hERG IC50 (μM) (hERG stably transfected HEK 293 cells): + (<25 PM)
CC(C)N(C(=O)c1cc(F)ccc1Oc1cncnc1N1CC2(CCN(C[C@@H]3CC[C@@H](NS(=O)(=O)N(C)C)CO3)CC2)C1)C1CC1 [Example 93, N-Cyclopropyl-2-((4-(7-(((2S,5R)-5-((N,N-dimethylsulfamoyl)amino)tetrahydro-2H-pyran-2-yl)methyl)-2,7-diazaspiro[3.5]nonan-2-yl)pyrimidin-5-yl)oxy)-5-fluoro-N-isopropylbenzamide]	+++ (≥66%)	++ (233% and ≤66%)	hERG % Remaining (1 μM compound): +++ (≥66%); hERG % Remaining (3 μM compound): +++ (≥66%); hERG % Remaining (100 μM compound): + (<33%)
CCNS(=O)(=O)N[C@H]1CC[C@H](CN2CCC3(CC2)CN(c2ncnnc2Oc2ccc(F)cc2C(=O)N(CC(F)(F)F)C(C)C)C3)OC1 (stereo in doubt) [Example 193, 2-((5-(7-(((2R,5S)-5-((N-Ethylsulfamoyl)amino)tetrahydro-2H-pyran-2-yl)methyl)-2,7-diazaspiro[3.5]nonan-2-yl)-1,2,4-triazin-6-yl)oxy)-5-fluoro-N-isopropyl-N-(2,2,2-trifluoroethyl)benzamide]		+++ (≥66%)	
CC(C)N(CC(F)F)C(=O)c1cc(F)ccc1Oc1cncnc1N1CC2(CCN(C[C@@H]3CC[C@@H](NS(=O)(=O)N(C)CCO)CO3)CC2)C1 [Example 239, N-(2,2-difluoroethyl)-5-fluoro-2-((4-(7-(((2S,5R)-5-((N-(2-hydroxyethyl)-N-methylsulfamoyl)amino)tetrahydro-2H-pyran-2-yl)methyl)-2,7-diazaspiro[3.5]nonan-2-yl)pyrimidin-5-yl)oxy)-N-isopropylbenzamide]		+++ (≥66%)	
C[C@@H]1COC[C@H](C)N1C(=O)c1cc(F)ccc1Oc1cncnc1N1CC2(CCN(C[C@@H]3CC[C@@H](NS(=O)(=O)c4ccccc4)CO3)CC2)C1 [Example 130, N-((3R,6S)-6-((2-(5-(2-((3S,5R)-3,5-Dimethylmorpholine-4-carbonyl)-4-fluorophenoxy)pyrimidin-4-yl)-2,7-diazaspiro[3.5]nonan-7-yl)methyl)tetrahydro-2H-pyran-3-yl)benzenesulfonamide]	+++ (≥66%)	++ (233% and ≤66%)	
CC(C)N(C(=O)c1cc(F)ccc1Oc1cncnc1N1CC2(CCN(C[C@@H]3CC[C@@H](NS(=O)(=O)N4CCC4)CO3)CC2)C1)C(C)C [Example 88, 2-((4-(7-(((2S,5R)-5-(Azetidine-1-sulfonamido)tetrahydro-2H-pyran-2-yl)methyl)-2,7-diazaspiro[3.5]nonan-2-yl)pyrimidin-5-yl)oxy)-5-fluoro-N,N-diisopropylbenzamide]		+++ (≥66%)	
CC(C)N(CC(F)F)C(=O)c1cc(F)ccc1Oc1cncnc1N1CC2(CCN(C[C@@H]3CC[C@@H](NS(=O)(=O)N(C)C(C)C)CO3)CC2)C1 [Example 101, N-(2,2-Difluoroethyl)-5-fluoro-N-isopropyl-2-((4-(7-(((2S,5R)-5-((N-isopropyl-N-methylsulfamoyl)amino)tetrahydro-2H-pyran-2-yl)methyl)-2,7-diazaspiro[3.5]nonan-2-yl)pyrimidin-5-yl)oxy)benzamide]		+ (<33%)	
